Legend:
[1] = test system: Carrot-1 RNA aptamer; assay: Properties of Carrot-1 RNA aptamer with different fluorophores (spectra, extinction coefficient, quantum yield, activation fold); assay type: biochemical; settings: for fluorescence intensity: excited at 524±10 nm, emission 580 nm±10 nm, 5 μM Carrot-1 + 1 μM IV-39, or control 1 μM IV-39 alone
Description: (§1) (5) Function detection of nucleic acid aptamers Carrot or Carrot mutant nucleic acid aptamer molecules were prepared according to common experimental method (I), 5 μM of nucleic acid aptamer molecules and 1 μM of fluorophore molecules were incubated in detection buffer (40 mM HEPES, pH 7.4, 125 mM KCl, 5 mM MgCl2, 5% DMSO), and Synergy Neo2 multifunctional microplate reader was used for detecting and obtaining the maximum excitation peak and the maximum emission peak of the fluorescence of the nucleic acid aptamer-fluorophore molecule complex. The Synergy Neo2 multifunctional microplate reader was used again for detecting the fluorescence intensity of the aptamer-fluorophore molecule complex under its maximum excitation and emission conditions. Control sample (1 μM of fluorophore molecules without nucleic acid aptamer) was measured under the same condition, and the ratio of fluorescence intensity was calculated. […] By using Synergy Neo2 multifunctional microplate reader, it was detected that the fluorescence intensity of the complex was 5720 when it was excited at 524±10 nm and emitted under the emission condition of 580 nm±10 nm, while fluorescence intensity of the control sample (1 μM of IV-39 fluorophore molecules) under the same detection condition was 20, so the activation multiple of Carrot-1 nuclear acid aptamer to IV-39 fluorophore molecule was 286.
In order to detect the spectral properties of the Carrot-IV-39 complex, Carrot-1 (SEQ ID NO: 2) RNA was prepared according to the commonly used experimental method (1). 1 μM IV-39 with 5 μM Carrot-1 was incubated.
Carrot-1 RNA aptamer was prepared according to the commonly used experimental methods (1), and was used to detect the properties of IV-39 analogues upon Carrot binding, including the fluorescence spectrum, extinction coefficient, quantum yield and fluorescence activation fold. From the data shown in the table, Carrot-1 still could activate the fluorescence of IV-39 analogues.

[2] = molecular target: Carrot-1; assay: Binding constant of Carrot-1 and IV-39 by fluorescence titration; settings: 20 nM Carrot-1 incubated with different concentrations of IV-39
Description: In order to detect the binding constant of Carrot-1 and IV-39, 20 nM Carrot-1 was incubated with different concentrations of IV-39 and their fluorescence was determined.

[3] = test system: tdMCP-NanoLuc-tdMCP fusion protein; settings: 293T/17 cells, 1 μM IV-4, 20 μM Furimazine
Description: In order to use Carrot to detect RNA-protein interactions, the interaction between phage capsid protein MCP and its binding sequence MS2 RNA was used as an example. […] The cDNAs encoding tdMCP protein (the dimeric form of MCP, SEQ ID No: 32) and NanoLuc protein (SEQ ID No: 33) were synthesized. Primers P29 and P30, P33 and P34 were used to amplify tdMCP gene fragment, respectively. Primers P35 and P36 were used to amplify NanoLuc gene fragment. The obtained fragments were inserted into the HindIII and XhoI sites of pCDNA3.1 hygro(+) to generate pCDNA3.1 hygro(+)-tdMCP-NanoLuc-tdMCP according to the commonly used experimental method (4), the sequence of the fusion protein encoded by which is SEQ ID No:34.
After 24 h of transfection, 1 μM IV-4 fluorophore was added to label Carrot. Imaging was taken immediately after addition of 20 μM Furimazine to the medium.

[4] = Fluorescence activation of IV-39 fluorophore by Carrot-1 and Carrot mutants (function detection of nucleic acid aptamers); assay type: biochemical; settings: for Activation fold: 1 μM IV-39 incubated with 5 μM Carrot-1 mutant RNA
Description: as §1
In order to detect the fluorescence activation of IV-39 fluorophore by different Carrot mutant, the Carrot-1 sequence was mutated according to Table 1. The Carrot RNA containing different mutations were prepared according to the commonly used experimental method (1). 1 μM IV-39 was incubated with 5 μM Carrot-1 mutant RNA and their fluorescence activation folds were determined according to the commonly used experimental method (5). […] Several Carrot-1 mutants containing 2-5 mutations still retained strong fluorescence activation of IV-39 (>100 times) (Table 3). In summary, many Carrot-1 mutants containing single and multiple mutants still retain the ability to activate the fluorescence of IV-39 fluorophore.

[5] = test system: 293T/17 cells; assay: RNA labeling in mammalian cells using tRNA-Carrot-2 and IV-39; assay type: cell-based
Excerpt: In major imaging experiments of the examples, a Leica SP8 confocal laser microscope was used for photographing, HCXPL APO 63.0×1.47 oil lens and HyD detector were used, and various lasers, such as 405 nm, 457 nm, 476 nm, 488 nm, 497 nm, 514 nm nm, 561 nm and 633 nm, were used for imaging; complexes formed by each Carrot and dye molecules were imaged by laser close to the wavelength corresponding to the maximum excitation peak. For others, GFP used a 488 nm laser; Hoechst and DAPI fluorescence used a 405 nm laser; and Rhodamine used a 561 nm laser.
In order to use Carrot and IV-39 for RNA labeling in mammalian cells, the reported Pepper and Corn aptamer (binding to HBC599 and DFHO fluorophores, respectively) were used as the controls (Chen et al. Nature Biotechnology 2019. 37: 1287-1293; Song et al. Nature Chemical Biology 2017. 13: 1187-1194). The mammalian cell expression plasmids expressing the RNA aptamers were constructed. cDNAs encoding tRNA-Carrot-2 (SEQ ID No: 4), tRNA-Pepper (SEQ ID No: 22) and tRNA-Corn (SEQ ID No: 21) were synthesized and amplified using the primers P7 and P8, and the primers P9 and P10 were used to amplify pEGFP-N1 to remove the promoter and multiple cloning site regions. […] Fluorescence imaging was performed according to the commonly used experimental method (3).

[6] = complex of 5 μM Carrot-1 and 1 μM IV-39

Molecule	fluorescence intensity [1]	Kd [2]	maximum emission peak [1, 6]	maximum excitation peak [1, 6]	fluorescence of Carrot-IV-4 complex by luminescence energy transfer (BRET) [3]	Activation fold ([4]; multiple mutations)	Activation fold ([4]; single mutation)	activation multiple of aptamer to IV-39 fluorophore molecule ([4]; 5 μM Carrot-1, 1 μM IV-39, ratio of fluorescence intensity to fluorophore alone)	fluorescence intensity compared with tRNA-Pepper-HBC599 and tRNA-Corn-DFHO complexes ([5]; 0.5 μM IV-39, 0.5 μM HBC599, 10 μM DFHO)	fluorescence in cells ([5]; 0.5 μM IV-39, 24 h after transfection, with or without 20 mM Mg2+)
CN1C(=O)/C(=C/c2ccc(N(C)CCO)cc2)N=C1/C=C/c1ccccc1 [IV-39]	20	58 nM	–	–	–	–	–	–	–	–
Carrot-1: RNA aptamer with the sequence of SEQ ID NO: 1, General Formula Carrot structure N1AGAUUGUAAACAN14-N15-N16GACACUN23 (GGGAAGAUUGUAAACACGCCGAAAGGCGGACACUUCCC; chemistry not given here)	5720	–	580 nm	524 nm	could not emit obvious orange-red fluorescence	286 fold	286 fold	286	–	–
tRNA-Carrot-IV-39: complex of tRNA-Carrot-2 (SEQ ID No: 4) RNA aptamer and IV-39 fluorophore (nucleic acid, RNA aptamer in complex with IV-39 fluorophore, further chemistry not given here) GCCCGGAUAGCUCAGUCGGUAGAGCAGCGGCCGGAAGAUUGUAAACACGCCGAAAGGCGGACACUUCCGGCCGCGGGUCCAGGGUUCAAGUCCCUGUUCGGGCGCCA	–	–	–	–	–	–	–	–	markedly higher	bright orange fluorescence

From patent US20230133910A1, “NEW METHOD FOR DETECTING AND QUANTIFYING RNA” (EAST CHINA UNIVERSITY OF SCIENCE AND TECHNOLOGY, priority 2020, published 2023)
